Measurements reported in US20080064722A1, “AGENT FOR PROMOTING INTERFERON-Y PRODUCTION” (KABUSHIKI KAISHA HAYAHIBARA SEIBUTSU KAGAKU KENKYU, priority 2001, published 2008).

Key:
[1] = LD50 of the cyanine dye; assay type: in vivo
[2] = tested on: IFN-γ production by immunocompetent cells (spleen cells); assay: Effect of cyanine dye on IFN-γ production (ex vivo: oral dosing of mice, spleen cells cultured with lipopolysaccharide, ELISA); assay type: in vivo, BALB/c female mice; conditions: for IFN-γ Production: once a day over three days, spleen cells 1×10^6 cells/ml, 5 μg/ml lipopolysaccharide, 72 hours
Protocol: The following explains the effect of the cyanine dyes on INF-γ production by immunocompetent cells based on ex vivo experiment using mice as an experimental animal.
(§1) Twenty-five of 10-week-old BALB/c female mice were divided into five groups. A powder consisting of one part by weight of “NK-4”, a cyanine dye represented by Chemical Formula 1 produced by Hayashibara Biochemical Laboratories, Inc., Okayama, Japan, and 200 parts by weight of sodium bicarbonate was prepared. Then, the mixture was dissolved in physiological saline to give a concentration of 20 mg/ml. Successively, the solution was diluted to give different concentrations as indicated in Table 1 with 20 mg/ml of sodium bicarbonate aqueous solution for administration to the mice. The dilutions were orally administered to the mice in four groups once a day over three days.
Spleens were respectively extracted from the mice in each group, minced and suspended in a usual manner in the art to give the spleen cell suspension. The cell suspensions were collected and diluted in RPMI medium (pH 7.2), supplemented with 10% (v/v) calf serum […] and containing 10 mM HEPES (N-2-hydroxyethylpiperadine-N′-2-ethanesulfonic acid) and 5 μg/ml lipopolysaccharide, to give a concentration of 1×10^6 cells/ml, and were cultured at 37° C. for 72 hours. IFN-γ was measured by conventional enzyme-linked immunosorbent assay (ELISA). As a control, the mice of the group with no cyanine dye were treated similarly as above. The measured values of IFN-γ were converted into international units (IU) with reference to the standard mouse IFN-γ (Gg02-901-533) obtained form National institute of Health, U.S.A., as an IFN-γ standard.

[3] = tested on: mice; assay: Observation of the mice administered with the cyanine dye (death, condition, side effects); assay type: in vivo
Protocol: as §1

| Compound | LD50 ([1]; intraperitoneal administration) | LD50 ([1]; oral administration) | IFN-γ Production ([2]; dose 1 μg/kg body weight) | IFN-γ Production ([2]; dose 10 μg/kg body weight) | IFN-γ Production ([2]; dose 100 μg/kg body weight) | IFN-γ production relative to that of the control group ([2]; dose 1,000 μg/kg body weight, control 0.4 IU/ml) | IFN-γ Production ([2]; dose 1,000 μg/kg body weight) | Serious side effect such as symptom of poisoning ([3]; directly applied to living bodies) | Condition of mice (hair complexion, appetite, motility) ([3]; mouse, in vivo, po) | Death of mice ([3]; oral, 1 to 1,000 μg/kg body weight, once a day over three days) |
| --- | --- | --- | --- | --- | --- | --- | --- | --- | --- | --- |
| CCCCCCCN1C(C)=CS\C1=C/C=C(/C=C/c1scc(C)[n+]1CCCCCCC)c1scc(C)[n+]1CCCCCCC [Chemical Formula 2] | 54 mg/kg body weight | 1.5 g/kg body weight |  |  |  |  |  |  |  |  |
| CCN1C=CC(=CC=C(C=Cc2cc[n+](CC)c3ccccc23)c2cc[n+](CC)c3ccccc23)c2ccccc21 [NK-4] |  |  | 1.2 IU/ml | 2.2 IU/ml | 2.3 IU/ml | sevenfold | 2.8 IU/ml | did not cause any serious side effect | good conditions of hair complexion, appetite, and motility | did not die |
